For data set [1] the following is noted: 2 drops per day of 0.2% BT, 1-7% absorption, 0.66 mg brimonidine per mg BT. The protocol: Theoretical maximum and minimum amounts of BT absorption were also calculated as a basis for comparison for in vitro release from the BTMPs. This range was calculated by assuming a 50 μl drop and 2 drops administered per day at a rate of either 1% (minimum) or 7% (maximum) absorption (Ghate and Edelhauser, 2008). As the in vitro release methods measure base brimonidine and not the tartrate salt, a necessary conversion factor of 0.66 mg brimonidine for every 1 mg BT was incorporated in these calculations (Acheampong et al., 2002).

The conditions of data set [2]: in vivo; cited from earlier work.
The test system of data set [3] is New Zealand White rabbits. The data set can be described thus: Post-mortem T1-weighted MRI 24 h after intravitreal injection of Gd-DOTA in thermoresponsive gel. It counts as in vivo, rabbit. The settings on record: in hydrogel. How it is done: Scans were performed within one hour of sacrifice. Soluble Gd-DOTA without MP encapsulation was largely cleared from the injection site at 24 h, with only 56% and 59% signal intensity (relative to nearby muscle tissue) in the vitreous and anterior chamber, respectively. […] The spatiotemporal distribution of Gd-DOTA into the rest of the eye will also provide valuable data for future controlled release formulations of other ocular therapeutics, such as those targeting the posterior segment of the eye.

Data set [4] can be described thus: Loading and release of other drugs from microparticles embedded in the gel. It counts as physicochemical. From the text: The loading and release of other drugs (moxiflxacin and vancomycin) with the microparticles embedded within the gel has also been confirmed.
Data set [5] in a line: In vitro NGF release from PLGA microspheres. It counts as physicochemical. Particulars: FIG. 15. How it is done:
1. Prepare aqueous solution of NGF in DI water at 100 ug/ml concentration
2. Add 200 ul of this NGF solution to 4 ml dichloromethane/PLGA solution (using 200 mg of desired PLGA—for microspheres in FIG. 1 this was acid terminated 50:50 lactic:glycolic MW=7-17,000 Da viscosity=0.16-0.24 dl/g)
3. Sonicate for 10 s at 25% amplitude
4. Immediately add to 60 ml of 2% PVA solution and homogenize at 2300 rpm for 1 min
5. Add to 80 ml of 1% PVA solution and stir at 600 rpm for 3 h
6. Wash 4 times (each wash: centrifuge 5-10 min at 1000 rpm, decant, resuspend in DI water)
7. Freeze under liquid N2 and place on lyophilizer until all water is gone
1. Add microspheres (10 mg microspheres/100 ul gel) just prior to use and gently mix to suspend homogeneously.

Data on six molecules can be found in US20220202705A1, “THERMORESPONSIVE HYDROGEL CONTAINING POLYMER MICROPARTICLES FOR NONINVASIVE OCULAR BIOLOGIC DELIVERY” (University of Pittsburgh - Of the Commonwealth System of …, priority 2016, published 2022).

In the case of `Brc1c(NC2=NCCN2)ccc2nccnc12` [Brimonidine, brimonidine], in data set [1], the “therapeutic levels (theoretical brimonidine absorbed)” value was in the range of 0.53 to 3.7 µg/day.

For `O=C([O-])CN(CCN(CC(=O)[O-])CC(=O)O)CCN(CC(=O)[O-])CC(=O)O.[Gd+3]` [Gd-DTPA], in data set [2], the ocular half-life was 28.08 min.

Turning to `O=C([O-])CN1CCN(CC(=O)[O-])CCN(CC(=O)O)CCN(CC(=O)[O-])CC1.[Gd+3]` [Soluble Gd-DOTA, gadolinium-tetraazocyclododecanetetraacetic acid], in data set [3], the “signal intensity relative to muscle, anterior chamber” value turned out to be 59% and the “signal intensity relative to muscle, vitreous” value is 56%.

With `CN[C@H](CC(C)C)C(=O)N[C@H]1C(=O)N[C@@H](CC(N)=O)C(=O)N[C@H]2C(=O)N[C@H]3C(=O)N[C@H](C(=O)N[C@H](C(=O)O)c4cc(O)cc(O)c4-c4cc3ccc4O)[C@H](O)c3ccc(c(Cl)c3)Oc3cc2cc(c3O[C@@H]2O[C@H](CO)[C@@H](O)[C@H](O)[C@H]2O[C@H]2C[C@](C)(N)[C@H](O)[C@H](C)O2)Oc2ccc(cc2Cl)[C@H]1O` [vancomycin], in data set [4], the “loading and release with microparticles embedded within the gel” value is “confirmed”.

As for Brimonidine tartrate [BT], in data set [2], the ocular half-life is on record as 28.2 min.

“NGF: nerve growth factor, released from NGF-loaded PLGA microspheres”: the “duration of NGF release” value in data set [5] is listed as “approximately one week”.
